Source: BindingDB's records for doi:10.1021/jm0613469 (Uppsala University, 2007)
Residues, ends and D or L forms follow the SMILES beside them.

Target: Type-2 angiotensin II receptor (Sus scrofa)
Assay: Displacement of [125I]Ang2 from AT2 receptor in pig uterus myometrial membrane

Compound | Ki [µM]
CC[C@@H](C)[C@H](NC(=O)c1cccc(Cn2ccnc2)c1)C(=O)O [(2S,3R)-2-(3-((1H-imidazol-1-yl)methyl)benzamido)-3-methylpentanoic acid] | 0.0166
CC[C@@H](C)[C@H](NC(=O)[C@@H]1CCCN1C(=O)c1cccc(Cn2ccnc2)c1)C(=O)O [(2S,3R)-2-((S)-1-(3-((1H-imidazol-1-yl)methyl)benzoyl)pyrrolidine-2-carboxamido)-3-methylpentanoic acid] | > 10
CC[C@@H](C)[C@H](NC(=O)[C@@H]1CCCN1C(=O)c1cccc(Cc2cnc[nH]2)c1)C(=O)O [(2S,3R)-2-((S)-1-(3-((1H-imidazol-5-yl)methyl)benzoyl)pyrrolidine-2-carboxamido)-3-methylpentanoic acid] | > 10
CC[C@H](C)[C@H](NC(=O)[C@@H]1CCCN1C(=O)[C@@H](N)Cc1cnc[nH]1)C(=O)O [(2S,3R)-2-((S)-1-((S)-2-amino-3-(1H-imidazol-5-yl)propanoyl)pyrrolidine-2-carboxamido)-3-methylpentanoic acid] (H-His-Pro-Ile-OH) | > 10
O=C(N[C@@H](Cc1ccccc1)C(=O)O)c1cccc(Cn2ccnc2)c1 [(S)-2-(3-((1H-imidazol-1-yl)methyl)benzamido)-3-phenylpropanoic acid] | 0.0375
O=C(O)[C@H](Cc1ccccc1)NC(=O)[C@@H]1CCCN1C(=O)c1cccc(Cn2ccnc2)c1 [(S)-2-((S)-1-(3-((1H-imidazol-1-yl)methyl)benzoyl)pyrrolidine-2-carboxamido)-3-phenylpropanoic acid] | > 10
O=C(O)[C@H](Cc1ccccc1)NC(=O)[C@@H]1CCCN1C(=O)c1cccc(Cc2cnc[nH]2)c1 [(S)-2-((S)-1-(3-((1H-imidazol-5-yl)methyl)benzoyl)pyrrolidine-2-carboxamido)-3-phenylpropanoic acid] | > 10
CC(=O)N[C@@H](Cc1cnc[nH]1)C(=O)N1CCC[C@H]1C(=O)N[C@@H](Cc1ccccc1)C(=O)O [(S)-2-((S)-1-((S)-2-acetamido-3-(1H-imidazol-5-yl)propanoyl)pyrrolidine-2-carboxamido)-3-phenylpropanoic acid] (Ac-His-Pro-Phe-OH) | > 10
N[C@@H](Cc1cnc[nH]1)C(=O)N1CCC[C@H]1C(=O)N[C@@H](Cc1ccccc1)C(=O)O [(S)-2-((S)-1-((S)-2-amino-3-(1H-imidazol-5-yl)propanoyl)pyrrolidine-2-carboxamido)-3-phenylpropanoic acid] (H-His-Pro-Phe-OH) | > 10
